Data as given in publication PMC7688903 (Frontiers in Microbiology, 2020).
≈ marks a conversion by molar mass, not a printed value. Where a SMILES comes first, the peptide text is derived from it. [ ]: non-standard residue; d: D form. 2Thi = N[C@@H](Cc1cccs1)C(=O)O; Aib = CC(C)(N)C(=O)O

Legend:
[1] = tested on: all of the bacterial and fungal supernatants tested; settings: pH 8.0, peptide 0.5 mg/mL, 37°C, 24 h, RP-HPLC
Procedure: The stabilities of the peptides toward proteases secreted by E. coli ATCC 25922, P. aeruginosa ATCC 27853, A. baumannii ATCC 19606, S. aureus ATCC 25923, and C. albicans ATCC 10231 were also examined. Microbial supernatants were prepared by resuspending single colonies of each strain in 20 mL of an appropriate culture medium followed by incubation at 37°C overnight. MH broth and 2% tryptone/2% dextrose were used as the culture media for bacteria and yeast, respectively. Each culture was then centrifuged at 12,000 × g for 10 min and the supernatant was adjusted to pH 8.0 with HCl or NaOH and then filtered through a 0.22 μm sterile filter membrane ([Zaet et al., 2017]). The peptides were then dissolved in the filtered supernatants to a concentration of 0.5 mg/mL, and the peptide-free supernatants were used as negative controls. The samples were incubated at 37°C for 24 h in a water bath and then analyzed by RP-HPLC as described above.

E. coli ATCC 25922 = format: cell-based, Escherichia coli; settings: ATCC 25922, 20 h
Procedure, shortened: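 Inocula were set to 0.5 McFarland and diluted to ~5 × 10^5 CFU/mL (bacteria, MH broth) or 0.5 × 10^3 to 2.5 × 10^3 CFU/mL (yeast, RPMI 1640). Peptide twofold dilutions were added, plates incubated 20 h at 37°C or 48 h at 35°C, then scored by eye.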

BALB/c mice = experiment: In vivo acute toxicity, single injection; set-up: species or system mouse; settings: monitored 24 h
Procedure: Six-week-old mice (approximate weight: 18–20 g, SFP grade) were bred and maintained under specific pathogen-free conditions on a 12 h light/dark cycle. The peptides were dissolved in PBS (pH 7.4) and three mice were used for each dose. As a control, colistin was administered in a similar manner. The mice were monitored for 24 h and mice were weighed at the end of the experiment. The procedure was evaluated and approved by the Ethical Committee of Experimental Animals of the Chia Tai Tianqing Pharmaceutical Group in August 2019.
As summarized in Figure 6, a toxicity score was assigned as follows: no abnormalities = without signs; mild depression, poor motility, purple-black tail, and recovery in 1 h = mild signs; serious depression and poor motility even under stimulation = manifest signs; sudden death within 10 min = died of toxic effects.

[2] = tested on: proteases secreted by A. baumannii ATCC 19606; experiment: in vitro; settings: Acinetobacter baumannii, A. baumannii ATCC 19606 culture supernatant, pH 8
Procedure, shortened: (§1)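 Cell-free culture supernatants (overnight, 37°C; MH broth for bacteria, 2% tryptone/2% dextrose for yeast) were centrifuged, adjusted to pH 8.0 and 0.22 μm filtered. Peptides at 0.5 mg/mL were incubated in supernatant 24 h at 37°C; remaining intact peptide measured by RP-HPLC, with peptide-free supernatant as negative control.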

[3] = tested on: proteases secreted by C. albicans ATCC 10231; experiment: in vitro; settings: C. albicans ATCC 10231 culture supernatant (2% tryptone/2% dextrose), pH 8.0, 0.22 μm filtered; peptide 0.5 mg/mL; 37°C, 24 h; RP-HPLC
Procedure, shortened: as §1

[4] = tested on: proteases secreted by P. aeruginosa ATCC 27853; experiment: in vitro; settings: Pseudomonas aeruginosa, P. aeruginosa ATCC 27853 culture supernatant, pH 8
Procedure, shortened: as §1

P. aeruginosa ATCC 9027 = experiment: In vivo antibacterial activity, lethal intraperitoneal infection; settings: BALB/c mice, lethal i.p. dose of P. aeruginosa ATCC 9027, 10 mg/kg i.p. at 1 and 8 h post-infection, n = 10
Procedure: The in vivo antibacterial activities of the peptides were evaluated in BALB/c mice using P. aeruginosa ATCC 9027 as a test strain. A total of 20 mice (6 weeks old, approximate weight: 18–20 g, SFP grade) were first used to measure the minimal lethal doses (MLD) with 5 mice for each inoculum. Cell numbers of selected strains were determined from the colony numbers from the plate count agar and four inocula (1 × 10^6, 5 × 10^6, 1 × 10^7, and 5 × 10^7 CFU/mouse) were administered via intraperitoneal injection. The minimal lethal dose was determined by measuring the mortality rate after 72 h. BALB/c mice were then injected intraperitoneally with a lethal dose of P. aeruginosa ATCC 9027. […] Colistin (10 mg/kg) was used as a positive control. The survival of the animals was monitored over 7 d.

Procedure for human plasma proteases: The peptides were mixed with plasma from healthy volunteers to a final concentration of 0.1 mg/mL and incubated at 37°C. Aliquots (20 or 40 μL) were removed after 0, 2, 4, 6, 8, 12, 24, and 36 h, mixed with 0.05% TFA to a final concentration of 0.01 mg/mL, and incubated on ice for 10 min. After centrifugation (12,000 × g, 5 min), the supernatant was stored at −20°C. The samples were analyzed as described in section “Hydrophobicity” and quantified as described in section “Stability Toward Tryptic Degradation.” All stability tests were performed at least in triplicate. The identities of the metabolites after 12 h of degradation by plasma proteases were determined by LC-MS on a Waters Acquity UPLC-QDa system.

| SMILES | degradation products by plasma proteases (LC-MS) (human plasma proteases) | original peptide remaining in microbial supernatants [1] | MIC (E. coli ATCC 25922) | signs of toxicity after intravenous injection (BALB/c mice; single i.v. dose 5 mg/kg, three mice) | signs of toxicity after intravenous injection (BALB/c mice; single i.v. dose 10 mg/kg, three mice) | remaining at 24 h, 0.5 mg/mL [2] | Percent of remained peptide amount after incubation (%) [3] | remaining at 24 h, 0.5 mg/mL [4] | survival rate (P. aeruginosa ATCC 9027; after 3 d) | survival rate (P. aeruginosa ATCC 9027; after 7 d) | signs of toxicity after intravenous injection (BALB/c mice; single i.v. dose, all tested doses (5, 10, 20 mg/kg), three mice per dose) |
| --- | --- | --- | --- | --- | --- | --- | --- | --- | --- | --- | --- |
| CC(C)C[C@H](NC(=O)[C@H](CC(C)C)NC(=O)[C@@H](CCCCN)NC(=O)[C@@H](CCCCN)NC(=O)[C@H](Cc1ccccc1)NC(=O)[C@H](CC(C)C)NC(=O)[C@@H](CCCNC(=N)N)NC(=O)[C@H](N)CCCCN)C(=O)N[C@H](CCCCN)C(=O)N[C@@H](Cc1ccc(O)cc1)C(=O)N[C@@H](CC(C)C)C(=O)N[C@H](CCCNC(=N)N)C(=O)N[C@H](CCCCN)C(=O)N[C@@H](Cc1ccccc1)C(N)=O [DP06] (H-[dK][dR]LF[dK][dK]LL[dK]YL[dR][dK]F-NH2) | No obvious degradation products | more than 60% | 1 µg/mL (≈ 0.532 µM) | sudden death within 1 min of injection | sudden death within 1 min of injection | 63.5 ± 3.28% | 62.07 ± 3.27 % | 61.2 ± 6.06% | – | – | – |
| CC(C)C[C@H](NC(=O)[C@H](Cc1ccc(O)cc1)NC(=O)[C@H](CCCCN)NC(=O)[C@H](CC(C)C)NC(=O)[C@H](CC(C)C)NC(=O)[C@H](CCCCN)NC(=O)[C@H](CCCCN)NC(=O)[C@H](Cc1ccccc1)NC(=O)[C@H](CC(C)C)NC(=O)[C@H](CCCNC(=N)N)NC(=O)C(C)(C)N)C(=O)N[C@@H](CCCNC(=N)N)C(=O)N[C@@H](CCCCN)C(=O)N[C@@H](Cc1cccs1)C(N)=O [UP09] (H-[Aib]RLFKKLLKYLRK[2Thi]-NH2; N-terminus assumed) | – | – | 2 µg/mL (≈ 1.08 µM) | – | – | – | – | – | 40% | 10% | Mild depression and purple-black tails |
